The source of these data is BindingDB's records for doi:10.1111/j.1747-0285.2009.00842.x (Universita Degli Studi Di Firenze, 2009).

The structures appear in SMILES notation.

The target in one assay is Carbonic anhydrase 7 (Homo sapiens, UniProt P43166). In words: Inhibition Assay. To be noted: pH 7.4; 25 °C.
A further assay addresses Carbonic anhydrase 2 (Homo sapiens, UniProt P00918). As to the kind of experiment: Inhibition Assay. To be noted: pH 7.4; 25 °C.

Carbonic anhydrase 7, sequence (P43166 whole entry): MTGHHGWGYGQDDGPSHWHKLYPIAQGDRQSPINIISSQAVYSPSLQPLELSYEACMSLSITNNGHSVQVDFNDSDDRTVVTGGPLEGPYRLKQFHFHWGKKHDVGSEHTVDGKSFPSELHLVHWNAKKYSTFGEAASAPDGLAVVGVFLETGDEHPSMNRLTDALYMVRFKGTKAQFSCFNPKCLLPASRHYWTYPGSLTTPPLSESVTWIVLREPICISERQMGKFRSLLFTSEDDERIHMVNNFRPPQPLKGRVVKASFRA

What is called Ki is a measure of affinity in units of concentration, obtained from inhibition or displacement. As for `NS(=O)(=O)c1ccc(Br)cc1` [p-Halide-sulfanilamide derivative, 2a], the affinity on Carbonic anhydrase 7 corresponds to a Ki of 68 nM.

With `CNS(=O)(=O)c1ccc(N=Nc2ccc(O)cc2)cc1` [p-Phenyldiazenyl derivative, 8], the values for the inhibition constant (Ki) on Carbonic anhydrase 7 and on Carbonic anhydrase 2 were 706 nM and 277 nM, respectively.

Take `NS(=O)(=O)c1ccc(Cl)cc1` [p-Halide-sulfanilamide derivative, 2]: the affinity on Carbonic anhydrase 2 corresponds to a Ki of 17.5 nM.

In turn, `NS(=O)(=O)c1ccc(I)cc1` [p-Halide-sulfanilamide derivative, 3] came in with a Ki at Carbonic anhydrase 2 of 81 nM.

As for `COc1ccc(/N=N/c2ccc(S(=O)(=O)N(C)C)cc2)cc1` [p-Phenyldiazenyl derivative, 6], the Ki was 4200 nM on Carbonic anhydrase 7 and 863 nM on Carbonic anhydrase 2.

Consider `CN(C)S(=O)(=O)c1ccc(N=Nc2ccc(O)cc2)cc1` [p-Phenyldiazenyl derivative, 7], for which the inhibition constant Ki is 752 nM at Carbonic anhydrase 7 and 312 nM at Carbonic anhydrase 2.

The compound `NS(=O)(=O)c1ccc(O)cc1` [p-Hydroxy-benzene derivative, 3a] gave a Ki at Carbonic anhydrase 7 of 88 nM.

`CN(C)c1ccc(/N=N/c2ccc(S(N)(=O)=O)cc2)cc1` yielded a Ki at Carbonic anhydrase 7 of 30 nM.
